Experimental data published in paper PMC8776094, “Reactive Oxygen Species Production Is Responsible for Antineoplastic Activity of Osmium, Ruthenium, Iridium and Rhodium Half-Sandwich Type Complexes with Bidentate Glycosyl Heterocyclic Ligands in Various Cancer Cell Models” (International Journal of Molecular Sciences, 2022).

Columns and labels:
[1] = system: A2780 ovarian cancer cells; assay: SRB assay, 48 h, cytostasis, A2780; assay type: cell-based; settings: for A2780 Max. Inh. (%): ND = not detected; for cytostatic activity on A2780 cells in SRB assay (in words): 48 h treatment
Description: (§1) The compounds were tested between 0.001694 and 33.3333 µM, using a 4-hour-long MTT test to assess rapid toxicity and a 48-hour-long SRB assay to assess the long-term effects of the inhibition of proliferation (cytostasis). The MTT assay assesses the activity of mitochondrial complex I and detects rapid, direct toxicity, as well as indicating apoptosis and necrosis. The SRB assay measures the total protein content that is proportional to cell numbers; therefore, the assay can detect changes in cell numbers and can thus be used as a readout for cell proliferation. The SRB assay was performed after 48 h of treatment (with the exception of L428 cells, which were tested for 96 h due to their slower proliferation rate). In this setting, the SRB assay informs us of long-term changes to cell proliferation. We assessed the maximal inhibition within that concentration range, and descriptive statistics were performed. We performed a one-way ANOVA, followed by the Kruskal–Wallis test, regardless of the normal or non-normal distribution of the data. Due to the large number of significance values, the results of the significance calculations are provided in an Excel spreadsheet at https://figshare.com/s/28d14597d5041f08eb08 (accessed on 6 January 2022), among other primary data of the study. Where possible, nonlinear regression was performed on the curves to determine the IC50 values ((inhibitor) vs. response—variable slope (four parameters) method with Graphpad v8.0.1). […] In Table 5, we added the IC50 values that we determined for a set of 4 active ruthenium half-sandwich complexes we identified previously, to be used in subsequent structure-activity relationship (SAR) analyses.
(§2) A2780 cells were cultured in RMPI 1640 medium, supplemented with 10% fetal calf serum, 2 mM glutamine, and 1% penicillin-streptomycin.
(§3) The assay was performed similarly to the method used in [73]. Cells were seeded in 96-well plates the day before the assay. Cells were treated with the compounds for 48 h, with the exception of L428, where 96 h of treatment was applied. Cells were fixed with 10% trichloroacetic acid (TCA). Fixed cells were washed in distilled water 3 times, followed by staining with SRB (0.4 m/V% dissolved in 1% acetic acid) for 10 min. The stained cells were washed in 1% acetic acid 5 times; the acetic acid was removed, and the cells were left to dry. Protein-bound SRB was released by adding 100 µL 10 mM Tris base. Plates were measured in a plate photometer (Thermo Scientific Multiscan GO spectrophotometer, Waltham, MA, USA) at 540 nm. On each plate, wells were designed to contain untreated cells. In calculations, the readings for these wells were considered as 1 and all readings were expressed relative to these values.
(§4) Statistical analysis was performed using the 8.0.1 version of Graphpad Prism. Values were tested for normal distribution, using the d’Agostino and Pearson normality test. When necessary, values were log-normalized or were normalized using the Box-Cox normalization method or using a two-step transformation, as indicated in the figure captions. Nonlinear regression was performed using the built-in “[Inhibitor] vs. Response—Variable slope (four parameters), least-square fit” utility of Graphpad, yielding the IC50 and Hill slope values.

[2] = Determination of the distribution coefficients (logD), n-octanol/PBS; assay type: physicochemical; settings: n-octanol / PBS pH = 7.40, rt
Description: Before starting the experiments, n-octanol was saturated with an aqueous PBS solution (pH = 7.40) and vice versa. A solution of the appropriate complex (approximately 0.2–0.3 mg) in a mixture of 2.50 mL pre-saturated n-octanol and 2.50 mL pre-saturated PBS buffer was made, and the resulting mixture was then vigorously stirred for 3 days at rt. Based on our previous NMR stability experiments, this time is long enough to reach equilibrium among the various ionic complex species. Due to the lipophilic/hydrophilic features of the complexes, those with benzoyl protection could primarily be found in the n-octanol, while the complexes with O-peracetylated and O-deprotected ligands were in the aqueous PBS phase. The corresponding separated solution was centrifuged (ScanSpeed 406G instrument, 4000 RPM for 5 min) and the absorption of the ”stock solution” was determined (VWR UV-1600PC Spectrophotometer, 270–420 nm). Then, 2.00 mL of the stock solution was vigorously stirred with 16.00 mL of pre-saturated n-octanol or PBS solution. After one day had passed, the phases were separated, centrifuged, and the absorption of the solution was measured again. From the absorption difference of the stock solutions, the distribution coefficient (D) was determined using previously described formulae [71].

[3] = system: ID8 ovarian cancer cell line; assay: MTT reduction assay, 4 h, rapid toxicity, ID8; assay type: cell-based; settings: MTT assay, 4 h treatment; ND = not detected or cannot be calculated
Description: as §1
(§5) ID8 cells were cultured in a high-glucose DMEM (4.5 g/L glucose) medium, supplemented with 4% fetal calf serum, 2 mM glutamine, 1% penicillin-streptomycin, and 1% ITS supplement (I3146).
(§6) The MTT reduction assay measures the activity of mitochondrial complex I and can be used to detect apoptosis and necrosis. The assay was performed similarly to the method used in [72]. Briefly, cells were plated in 96-well plates the day before the assay. Cells were treated with the compounds for 4 h, then MTT was added at 0.5 mg/mL final concentration and the cells were incubated at 37 °C in a cell incubator. The culture media were removed and the reduced MTT dye was dissolved in dimethyl-sulfoxide (DMSO) and plates were measured in a plate photometer (Thermo Scientific Multiscan GO spectrophotometer, Waltham, MA, USA) at 540 nm. On each plate, wells were designed to contain untreated/vehicle-treated cells. In the calculations, the readings for these wells were considered as 1 and all readings were expressed relative to these values.

[4] = system: Capan2, a pancreatic adenocarcinoma cell line; assay: SRB assay, 48 h, cytostasis, Capan2; assay type: cell-based; settings: SRB assay, ND = not detected
Description: We turned next to assessing whether the cytostatic activity of Os-3, Os-4, Os-5, Os-6 and Ir-6 complexes is specific for ovarian cancer cell lines or if they may be active on other cell lines. To that end, we tested the complexes on another carcinoma cell line (Capan2, a pancreatic adenocarcinoma cell line), on a sarcoma cell line (Saos, an osteosarcoma cell line) and on a lymphoma cell line (L428, a Hodgkin’s lymphoma cell line).
Capan2 cells were maintained in MEM, 10% fetal bovine serum, 1% penicillin/streptomycin, and 2 mM glutamine.
as §3, §4
Here, 1.5 × 10^3 Capan2, 3 × 10^3 Saos cells and 10^4 L428 cells were plated onto 96-well plates. Capan2 and Saos cells were treated with the compounds in the concentrations indicated for 48 h for an SRB assay. L428 cells were treated with the compounds in the concentrations indicated for 96 h, then cells were counted using conventional microscopy and a Burker chamber. Data are represented as average ± SD, from three biological replicates; individual assays were performed in duplicate. Values were normalized for vehicle-treated cells; the absorbance for vehicle-treated cells is equal to 1. A one-way ANOVA, followed by a Kruskal–Wallis test, was performed individually for each compound. The results of the statistical analysis are presented in an Excel spreadsheet at https://figshare.com/s/28d14597d5041f08eb08 (accessed on 6 January 2022). Nonlinear regression was performed on the data.

[5] = system: ID8 ovarian cancer cell line; assay: SRB assay, 48 h, cytostasis, ID8; assay type: cell-based; settings: for ID8 Max. Inh. (%): SRB assay, 48 h, ND = not detected; for cytostatic activity on ID8 cells, SRB assay (in words): 48 h treatment
Description: as §1, §5, §3, §4

[6] = system: A2780 ovarian cancer cells; assay: MTT reduction assay, 4 h, rapid toxicity, A2780; assay type: cell-based; settings: 4 h treatment
Description: as §1, §2, §6

Row | Molecule | A2780 Max. Inh. (%) ([1]; SRB assay, 48 h) | LogD [2] | also measured
1 | Cc1c(C)c(C)[c-](C)c1C.F[P-](F)(F)(F)(F)F.O=C(OCC1OC(c2noc(-c3ccccn3)n2)C(OC(=O)c2ccccc2)C(OC(=O)c2ccccc2)C1OC(=O)c1ccccc1)c1ccccc1.[Cl][Ir+2] (mixture of isomers) [Ir-1] | 35.13 | 2.87 | 
2 | Cc1c(C)c(C)[c-](C)c1C.F[P-](F)(F)(F)(F)F.OCC1OC(c2noc(-c3ccccn3)n2)C(O)C(O)C1O.[Cl][Ir+2] (mixture of isomers) [Ir-2] | 36.38 | −1.15 | 
3 | Cc1c(C)c(C)[c-](C)c1C.F[P-](F)(F)(F)(F)F.O=C(OCC1OC(c2nnc(-c3ccccn3)o2)C(OC(=O)c2ccccc2)C(OC(=O)c2ccccc2)C1OC(=O)c1ccccc1)c1ccccc1.[Cl][Ir+2] (mixture of isomers) [Ir-3] | 69.25 | 1.46 | cytostatic activity on A2780 cells in SRB assay (in words) [1]: mild; Maximum Inhibition (%) ID8 [3]: 26.11%; Capan2 Max. Inh. (%) [4]: 27.62%
4 | Cc1c(C)c(C)[c-](C)c1C.F[P-](F)(F)(F)(F)F.O=C(OCC1OC(c2nnc(-c3ccccn3)o2)C(OC(=O)c2ccccc2)C(OC(=O)c2ccccc2)C1OC(=O)c1ccccc1)c1ccccc1.[Cl][Ir+2] (mixture of isomers) [Ir-4] | 32.45 | 1.46 | 
5 | Cc1c(C)c(C)[c-](C)c1C.F[P-](F)(F)(F)(F)F.O=C(OC1COC(c2nnc(-c3ccccn3)o2)C(OC(=O)c2ccccc2)C1OC(=O)c1ccccc1)c1ccccc1.[Cl][Ir+2] (mixture of isomers) [Ir-5] | 45.45 | 1.80 | ID8 Max. Inh. (%) [5]: 53.15%
6 | CC(=O)OCC1OC(c2nnc(-c3ccccn3)o2)C(OC(C)=O)C(OC(C)=O)C1OC(C)=O.Cc1c(C)c(C)[c-](C)c1C.F[P-](F)(F)(F)(F)F.[Cl][Ir+2] (mixture of isomers) [Ir-7] | 26.91 | −0.75 | 
7 | Cc1c(C)c(C)[c-](C)c1C.F[P-](F)(F)(F)(F)F.OCC1OC(c2nnc(-c3ccccn3)o2)C(O)C(O)C1O.[Cl][Ir+2] (mixture of isomers) [Ir-8] |  | −1.60 | 
8 | Cc1c(C)c(C)[c-](C)c1C.F[P-](F)(F)(F)(F)F.OCC1OC(c2nnc(-c3ccccn3)o2)C(O)C(O)C1O.[Cl][Ir+2] (mixture of isomers) [Ir-9] | 21.29 | −1.47 | 
9 | Cc1c(C)c(C)[c-](C)c1C.F[P-](F)(F)(F)(F)F.OC1COC(c2nnc(-c3ccccn3)o2)C(O)C1O.[Cl][Ir+2] (mixture of isomers) [Ir-10] | 23.12 | −1.56 | 
10 | CC(=O)OCC1OC(n2cc(-c3ccccn3)nn2)C(OC(C)=O)C(OC(C)=O)C1OC(C)=O.Cc1c(C)c(C)[c-](C)c1C.F[P-](F)(F)(F)(F)F.[Cl][Ir+2] (mixture of isomers) [Ir-11] | 20.26 |  | cytostatic activity on A2780 cells in SRB assay (in words) [1]: biologically inactive
11 | Cc1c(C)c(C)[c-](C)c1C.F[P-](F)(F)(F)(F)F.OCC1OC(n2cc(-c3ccccn3)nn2)C(O)C(O)C1O.[Cl][Ir+2] (mixture of isomers) [Ir-12] | 19.11 |  | cytostatic activity on A2780 cells in SRB assay (in words) [1]: biologically inactive
12 | Cc1c(C)c(C)[c-](C)c1C.F[P-](F)(F)(F)(F)F.O=C(OCC1OC(c2nnc(-c3ccccn3)o2)C(OC(=O)c2ccccc2)C(OC(=O)c2ccccc2)C1OC(=O)c1ccccc1)c1ccccc1.[Cl][Rh+2] (mixture of isomers) [Rh-3] | 39.86 | 1.60 | 
13 | Cc1c(C)c(C)[c-](C)c1C.F[P-](F)(F)(F)(F)F.O=C(OCC1OC(c2nnc(-c3ccccn3)o2)C(OC(=O)c2ccccc2)C(OC(=O)c2ccccc2)C1OC(=O)c1ccccc1)c1ccccc1.[Cl][Rh+2] (mixture of isomers) [Rh-4] | 35.30 | 1.64 | 
14 | Cc1c(C)c(C)[c-](C)c1C.F[P-](F)(F)(F)(F)F.O=C(OC1COC(c2nnc(-c3ccccn3)o2)C(OC(=O)c2ccccc2)C1OC(=O)c1ccccc1)c1ccccc1.[Cl][Rh+2] (mixture of isomers) [Rh-5] | 51.28 | 1.8 | cytostatic activity on ID8 cells, SRB assay (in words) [5]: mild cytostatic activity; ID8 Max. Inh. (%) [5]: 75.25%; Maximum Inhibition (%) ID8 [3]: 21.87%
15 | Cc1c(C)c(C)[c-](C)c1C.F[P-](F)(F)(F)(F)F.O=C(OCC1OC(n2cc(-c3ccccn3)nn2)C(OC(=O)c2ccccc2)C(OC(=O)c2ccccc2)C1OC(=O)c1ccccc1)c1ccccc1.[Cl][Rh+2] (mixture of isomers) [Rh-6] | 59 | 1.85 | IC50 ([1]; SRB assay, 48 h): 25.3 µM; cytostatic activity on ID8 cells, SRB assay (in words) [5]: mild cytostatic activity; ID8 Max. Inh. (%) [5]: 43.70%; Maximum Inhibition (%) ID8 [3]: 28.28%
16 | O=C(OC[C@H]1O[C@@H](c2noc(-c3ccccn3)n2)[C@H](OC(=O)c2ccccc2)[C@@H](OC(=O)c2ccccc2)[C@@H]1OC(=O)c1ccccc1)c1ccccc1 [Complex L-1, 3-(2′,3′,4′,6′-Tetra-O-benzoyl-β-D-glucopyranosyl)-5-(pyridin-2-yl)-1,2,4-oxadiazole] |  |  | cytostatic activity on A2780 cells in SRB assay (in words) [1]: practically inactive; toxicity on A2780 cells in short-term MTT assay (in words) [6]: practically inactive
17 | dichloro(η^6-p-cymene)osmium(II) dimer [Os-dimer] |  |  | cytostatic activity on A2780 cells in SRB assay (in words) [1]: inactive; cytostatic activity on ID8 cells, SRB assay (in words) [5]: inactive
